Data taken from publication PMC11856108, “Capsaicin (But Not Other Vanillins) Enhances Estrogen Binding to Its Receptor: Implications for Power Sports and Cancers” (Life, 2025).
pKd: −log10 of the molar value. Like-named read-outs stand apart in the source and are kept apart here.

What was measured:
Human, Mice = test system: Human, Mice; design: method as in PMID 29772784; details: Both ***; cited from earlier work
Human (male) = test system: Human (male); design: method as in PMID 17615999; details: cited from earlier work
[1] = target: T1, Estrogen receptor alpha (ER alpha) recombinant protein (ESR1) (Homo sapiens, UniProt P03372); assay: Binding to the estrogen receptor by ultraviolet spectroscopy
T1 sequence (P03372 1-595): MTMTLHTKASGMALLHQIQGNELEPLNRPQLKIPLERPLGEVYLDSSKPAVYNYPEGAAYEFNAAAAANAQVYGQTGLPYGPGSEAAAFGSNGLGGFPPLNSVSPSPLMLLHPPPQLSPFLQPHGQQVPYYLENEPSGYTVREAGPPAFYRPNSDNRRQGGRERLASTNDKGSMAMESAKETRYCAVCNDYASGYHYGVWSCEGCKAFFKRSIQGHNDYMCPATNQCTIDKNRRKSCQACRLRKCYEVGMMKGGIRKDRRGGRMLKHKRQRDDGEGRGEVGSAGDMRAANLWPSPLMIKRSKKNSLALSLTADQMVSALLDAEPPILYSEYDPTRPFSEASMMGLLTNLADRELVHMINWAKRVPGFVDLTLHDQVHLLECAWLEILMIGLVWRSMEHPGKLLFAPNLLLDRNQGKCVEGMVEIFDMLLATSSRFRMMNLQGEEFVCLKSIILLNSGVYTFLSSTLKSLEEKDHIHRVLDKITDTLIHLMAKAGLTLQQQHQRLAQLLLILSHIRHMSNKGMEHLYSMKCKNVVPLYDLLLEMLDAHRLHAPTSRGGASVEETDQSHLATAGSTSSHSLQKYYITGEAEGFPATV

Human = test system: Human; design: method as in PMID 25621172; details: cited from earlier work
Human (NSCLC cells) = test system: Human (NSCLC cells); design: method as in PMID 24926985; details: cited from earlier work
Rats (female) = test system: Rats (female); design: method as in PMID 29294454; details: cited from earlier work
[2] = design: method as in PMID 26247812; details: DPPC mem-brane model; cited from earlier work
Human HepG2 cells = test system: Human HepG2 cells; design: method as in PMID 30987128; details: cited from earlier work
Mice = test system: Mice; design: method as in PMID 23958300; details: cited from earlier work
T1DM rats = test system: T1DM rats; design: method as in PMID 28230360; details: cited from earlier work

In the case of `COc1cc(CNC(=O)CCCC/C=C/C(C)C)ccc1O` [Capsaicin, trans-8-methyl-N-vanillyl-6-nonenamide], the “Capsaicin Upregulates” value (Human, Mice) is given as “>INS sensitivity—TRPV-1 activation stimulated GLP-1 release * >Fatty acid oxidation—modulated via TRPV1 activation >INS secretion from pancreatic β-cells ***”, the “Downregulates or Inhibits” value (Human, Mice) is given as “> Inflammatory factors **” and the “Capsaicin Upregulates” value (Human (male)) is given as “>Sympathetic modulation (adrenal catecholamine secretion) and thermogenesis”. The pKd [1] was 6.05, the “binding to the estrogen receptor (in words)” value ([1]; UV spectroscopy) was “bound to the estrogen receptor” and the “binding to the estrogen receptor (in words)” value ([1]; UV spectroscopy, listed as CAP) was “bind directly to the estrogen receptor”. For the same compound, the pKd ([1]; read-out: Kd, ESR1 lower affinity site, UV spectroscopy) was 5.00, the “Cancer-Related Effects” value (Human) was “>Induces apoptosis” and the “Downregulates or Inhibits” value (Human) was “>Bax/Bcl2 pathway → decreased expression of Bcl-2 (prosurvival gene)”. For the same compound, the Upregulates (Human) was “>Bax/Bcl2 pathways → increased expression of Bax (apoptotic gene)”, the “Cancer-Related Effects” value (Human (NSCLC cells)) was “>Inhibition of tumor angiogenesis and metastasis” and the “Downregulates or Inhibits” value (Human (NSCLC cells)) was “>VEGF expression”. The Upregulates (Human (NSCLC cells)) was “>Activates p53-SMAR1 positive feedback loop >Decreases endothelial cell migration and network reformation”, the “Cancer-Related Effects” value (Rats (female)) was “>Blocks formation of nitrosomethylurea-induced mammary tumors” and the “Downregulates or Inhibits” value (Rats (female)) was “>Decreased antioxidant enzymes”. For the same compound, the Upregulates (Rats (female)) was “>Increases estradiol, progesterone, CEA and malondialdehyde levels”, the Upregulates [2] was “>Increases membrane fluidity” and the “Capsaicin Upregulates” value (Human HepG2 cells) was “>Activation of AMPK pathway”. The “Downregulates or Inhibits” value (Human HepG2 cells) was “> Lipogenesis > Inhibition of AKT/mTOR pathway”, the “Capsaicin Upregulates” value (Mice) was “>Glucose uptake via AMPK activation and increasing p38 MAPK phosphorylation >Stimulation of ROS generation” and the “Capsaicin Upregulates” value (T1DM rats) was “>Serum INS (CAP 6 mg/kg)”. The “Downregulates or Inhibits” value (T1DM rats) was “>Fasting blood glucose levels and serum level of glycosylated protein”.
